We go through 11 compounds from US10105367B2, “Therapeutic thiophene-, furan-, and pyridine-fused azolopyrimidin-5-(6h)-ones” (Dart Neuroscience (Cayman) Ltd., priority 2012, dated 2018).

Each structure is given as a SMILES string.

The target in the first assay is human PDE1B (Homo sapiens (Human), UniProt Q01064). Description: PDE1B inhibitory assay (IMAP TR-FRET). The note with it: PDE1B pIC50, negative log of half-maximal molar inhibitory concentration; 200 nM FAM-cAMP, Calmodulin, CaCl2.
Protocol: PDE1B inhibition was determined by an IMAP TR-FRET assay.
After a brief centrifugation, the plates were incubated for 30 minutes at room temperature. The assay was terminated by adding 5 μL IMAP binding reagent/Tb complex (Molecular Devices, Sunnyvale, Calif.) to each well.
Plates were incubated 1 hour at room temperature and read on a Viewlux multimode plate reader (Perkin Elmer). The instrument was set to excite using the DUG11 filter and measure using 490/10 nm and 520/10 nm filters. Ratios of acceptor and donor were then calculated.
For IC50 calculations, the values of % efficacy versus a series of compound concentrations were then plotted using non-linear regression analysis of sigmoidal dose-response curves generated with the equation Y=B+(T−B)/1+10((Log EC50−X)×Hill Slope), where Y=percent activity, B=minimum percent efficacy, T=maximum percent efficacy, X=logarithm of compound and Hill Slope=slope factor or Hill coefficient. The IC50 value was determined by the concentration causing a half-maximal percent efficacy.
Broadly, the IC50 is the concentration that gives 50% inhibition. A higher IC50 goes with weaker potency. `C[C@@H]1CN(Cc2cnc3c(c2)c2ncnn2c(=O)n3Cc2ccc(F)c(Cl)c2)C[C@H](C)O1` [Example 294] gave a half-inhibitory concentration (IC50) of 100 to 1000 nM. On the same count and under the same terms, with `C[C@@H]1CN(Cc2cnc3c(c2)c2ncnn2c(=O)n3Cc2ccc(Cl)c(Cl)c2)C[C@H](C)O1` [Example 295] the figure was 100 to 1000 nM; with `COc1ccc(Cn2c(=O)n3ncnc3c3cc(CN4C[C@@H](C)O[C@@H](C)C4)cnc32)c(Cl)c1` [Example 296], 100 to 1000 nM; with `C[C@@H]1CN(Cc2cnc3c(c2)c2ncnn2c(=O)n3Cc2ccc(Cl)c(F)c2)C[C@H](C)O1` [Example 298], 100 to 1000 nM. On the same count and under the same terms, with `C[C@@H]1CN(Cc2cnc3c(c2)c2ncnn2c(=O)n3Cc2cc(F)cc(Cl)c2)C[C@H](C)O1` [Example 299] the figure was 1000 to 10000 nM; with `CCOc1ccc(Cn2c(=O)n3ncnc3c3cc(CN4C[C@@H](C)O[C@@H](C)C4)cnc32)cc1` [Example 301], 100 to 1000 nM; with `C[C@@H]1CN(Cc2cnc3c(c2)c2ncnn2c(=O)n3Cc2ccc(F)c(F)c2)C[C@H](C)O1` [Example 302], 100 to 1000 nM. With `CSc1ccc(Cn2c(=O)n3ncnc3c3cc(CN4C[C@@H](C)O[C@@H](C)C4)cnc32)cc1` [Example 303], the IC50 fell in the range of 100 to 1000 nM.

The assay is the same for the next values; noted with them: negative log of half-maximal molar inhibitory concentration; 200 nM FAM-cAMP, Calmodulin, CaCl2.
Consider `C[C@@H]1CN(Cc2cnc3c(c2)c2ncnn2c(=O)n3Cc2ccccc2SC(F)(F)F)C[C@H](C)O1` [Example 293], for which the “PDE1B pIC50” value is less than 5. The same measure, in the same setting: with `C[C@@H]1CN(Cc2cnc3c(c2)c2ncnn2c(=O)n3Cc2ccccc2OC(F)F)C[C@H](C)O1` [Example 297] the figure was less than 5. Take `C[C@@H]1CN(Cc2cnc3c(c2)c2ncnn2c(=O)n3Cc2ccc(N3CCCC3=O)cc2)C[C@H](C)O1` [Example 300]: the “PDE1B pIC50” value is reported as less than 5.
